Values after ≈ are worked out from the molar mass of the structure shown. Values joined by “and” are separate entries in the source; they are usually repeats but may differ in a detail not shown here. Identical values can stand only once. One block for each compound: values may come before it.
Tests used:
Assay in all cases: ≥ marks a high value that may be exact or a test limit, other limits are often not marked, values filed in µg/mL are converted to µM
Candida glabrata = test system: Candida glabrata
[1] = test system: Candida albicans IHEM 8060
Bacillus megaterium = test system: Bacillus megaterium
[2] = test system: Candida parapsilosis ATCC 22019
[3] = test system: Acinetobacter baumannii ATCC 19606
[4] = test system: Streptococcus pyogenes ATCC 19615
Aspergillus flavus = test system: Aspergillus flavus
Staphylococcus aureus = test system: Staphylococcus aureus
Escherichia coli JC113 = test system: Escherichia coli JC113
Klebsiella pneumoniae = test system: Klebsiella pneumoniae
[5] = test system: Pseudomonas aeruginosa JC115
Escherichia coli = test system: Escherichia coli
[6] = test system: Staphylococcus aureus ATCC 43300
[7] = test system: Escherichia coli ATCC 35218
[8] = test system: Pseudomonas aeruginosa ATCC 9027
Escherichia coli D21 = test system: Escherichia coli D21
Escherichia coli ML-35p = test system: Escherichia coli ML-35p
[9] = test system: Candida albicans ATCC 90028
[10] = test system: Staphylococcus aureus USA 100
Acinetobacter baumannii = test system: Acinetobacter baumannii
[11] = test system: Pseudomonas aeruginosa ATCC 27853
[12] = test system: Staphylococcus aureus JC114
Saccharomyces cerevisiae = test system: Saccharomyces cerevisiae
[13] = test system: Klebsiella pneumoniae ATCC 700603
Bacillus subtilis JC443 = test system: Bacillus subtilis JC443
[14] = test system: Staphylococcus aureus USA 300
[15] = test system: Staphylococcus aureus ATCC BAA-44
Listeria ivanovii = test system: Listeria ivanovii
[16] = test system: Enterococcus faecalis ATCC 29212
Bacillus cereus C737 = test system: Bacillus cereus C737
[17] = test system: Pseudomonas aeruginosa PAO1
Escherichia coli UB1005 = test system: Escherichia coli UB1005
Leuconostoc lactis = test system: Leuconostoc lactis
Pasteurella multocida = test system: Pasteurella multocida
Listeria innocua = test system: Listeria innocua
Bacillus cereus = test system: Bacillus cereus
Streptococcus uberis = test system: Streptococcus uberis
Micrococcus luteus = test system: Micrococcus luteus
[18] = test system: Staphylococcus epidermidis
[19] = test system: Lacticaseibacillus casei ATCC 4646
[20] = test system: Streptococcus mutans UA159
[21] = test system: Streptococcus gordonii Challis DL1
[22] = test system: Streptococcus mitis ATCC 903
[23] = test system: Veillonella atypica PK1910
[24] = test system: Pseudomonas aeruginosa PAK
[25] = test system: Streptococcus sanguinis NY101

Compound: CC[C@H](C)[C@H](NC(=O)[C@H](C)NC(=O)CNC(=O)[C@@H](NC(=O)[C@@H](NC(=O)[C@H](CCCCN)NC(=O)[C@H](CCCCN)NC(=O)[C@@H](NC(=O)[C@@H](NC(=O)[C@H](CC(=O)O)NC(=O)[C@H](Cc1ccccc1)NC(=O)[C@H](CC(C)C)NC(=O)CN)[C@@H](C)CC)C(C)C)C(C)C)C(C)C)C(=O)NCC(=O)N[C@@H](CO)C(=O)N[C@@H](CC(C)C)C(=O)O [GLFDIVKKVVGAIGSL]
MIC (Bacillus cereus C737): ≥ 79.2 µM | MIC [17]: > 79.2 µM | MIC (Escherichia coli UB1005): ≥ 79.2 µM

Compound: CC[C@H](C)[C@H](NC(=O)[C@H](CC(=O)O)NC(=O)[C@H](Cc1ccccc1)NC(=O)[C@H](CC(C)C)NC(=O)CN)C(=O)N[C@H](C(=O)N[C@@H](CCCCN)C(=O)N[C@@H](CCCCN)C(=O)N[C@H](C(=O)N[C@H](C(=O)NCC(=O)N[C@@H](C)C(=O)N[C@@H](CC(C)C)C(=O)NCC(=O)N[C@@H](CO)C(=O)N[C@@H](CC(C)C)C(N)=O)C(C)C)C(C)C)C(C)C [GLFDIVKKVVGALGSL]
MIC (Leuconostoc lactis): 7.43 µM (≈ 12 µg/mL) | MIC (Bacillus cereus C737): ≥ 79.2 µM | MIC (Staphylococcus aureus): 15.5 µM (≈ 25 µg/mL) | MIC (Escherichia coli): > 61.9 µM | MIC [17]: > 79.2 µM | MIC (Pasteurella multocida): ≥ 61.9 µM | MIC (Listeria innocua): 7.43 µM (≈ 12 µg/mL) | MIC (Bacillus cereus): ≥ 61.9 µM | MIC (Streptococcus uberis): ≥ 61.9 µM | MIC (Micrococcus luteus): 15.5 µM (≈ 25 µg/mL) | MIC (Escherichia coli UB1005): ≥ 39.6 µM | MIC [18]: 15.5 µM (≈ 25 µg/mL)

Compound: CC(C)C[C@H](NC(=O)[C@H](CC(C)C)NC(=O)[C@H](Cc1cnc[nH]1)NC(=O)[C@H](Cc1cnc[nH]1)NC(=O)[C@H](CC(C)C)NC(=O)[C@H](CCCCN)NC(=O)[C@H](CCCCN)NC(=O)[C@H](CC(C)C)NC(=O)[C@H](CC(C)C)NC(=O)[C@H](CCCN=C(N)N)NC(=O)[C@H](CCCN=C(N)N)NC(=O)[C@H](Cc1c[nH]c2ccccc12)NC(=O)[C@@H](N)CCCN=C(N)N)C(=O)N[C@@H](Cc1cnc[nH]1)C(N)=O [RWRRLLKKLHHLLH]
MIC [19]: 8.39 µM (≈ 16 µg/mL) | MIC [20]: 4.2 µM (≈ 8 µg/mL) | MIC (Staphylococcus aureus): 8.39 µM (≈ 16 µg/mL) | MIC [21]: 8.39 µM (≈ 16 µg/mL) | MIC [22]: 16.8 µM (≈ 32 µg/mL) | MIC [23]: 2.1 µM (≈ 4 µg/mL) | MIC [24]: 4.2 µM (≈ 8 µg/mL) | MIC [25]: 8.39 µM (≈ 16 µg/mL)

Further lines, results first:

MIC (Candida glabrata): 17.6 µM (≈ 63.9 µg/mL) | MIC [1]: 17.6 µM (≈ 63.9 µg/mL)
Compound: CC[C@H](C)[C@@H]1NC(=O)[C@@H](N)CSSC[C@@H]2NC(=O)[C@@H]3CSSC[C@@H](C(=O)N[C@@H](CCCN=C(N)N)C(=O)O)NC(=O)[C@H](Cc4ccc(O)cc4)NC(=O)CNC(=O)[C@H](C)NC(=O)[C@H](C(C)C)NC(=O)[C@H](Cc4c[nH]c5ccccc45)NC(=O)CNC(=O)[C@@H]4CCCN4C(=O)[C@H](CCC(=O)O)NC(=O)[C@H](CCCCN)NC(=O)[C@H](Cc4cnc[nH]4)NC(=O)[C@H](CSSC[C@H](NC(=O)CNC(=O)[C@H](CC(N)=O)NC(=O)[C@H](CCCN=C(N)N)NC(=O)[C@H](CC(N)=O)NC(=O)[C@H](C)NC1=O)C(=O)N[C@@H](CCC(N)=O)C(=O)N1CCC[C@H]1C(=O)N[C@@H](CC(=O)O)C(=O)NCC(=O)N[C@@H](CO)C(=O)N[C@@H](CCC(N)=O)C(=O)NCC(=O)N[C@@H](CC(N)=O)C(=O)N3)NC(=O)[C@H](Cc1ccc(O)cc1)NC(=O)CNC(=O)[C@H](CO)NC2=O [CIANRNGCQPDGSQGNCCSGYCHKEPGWVAGYCR]

MIC (Bacillus megaterium): 3 µM (≈ 3.23 µg/mL) | MIC [2]: ≥ 50 µM | MIC [3]: > 100 µM | MIC [4]: 25 µM (≈ 26.9 µg/mL) | MIC (Aspergillus flavus): ≥ 200 µM | MIC (Staphylococcus aureus): 100 µM (≈ 108 µg/mL) | MIC (Escherichia coli JC113): ≥ 116 µM | MIC (Klebsiella pneumoniae): > 100 µM | MIC [5]: ≥ 88 µM | MIC (Escherichia coli): > 100 µM | MIC [6]: > 100 µM | MIC [7]: ≥ 200 µM | MIC [8]: > 100 µM | MIC (Escherichia coli D21): ≥ 100 µM | MIC (Escherichia coli ML-35p): 30 µM (≈ 32.3 µg/mL) | MIC [9]: ≥ 100 µM | MIC [10]: ≥ 50 µM | MIC (Acinetobacter baumannii): ≥ 100 µM | MIC [11]: > 200 µM and 100 µM | MIC [12]: ≥ 121 µM | MIC (Saccharomyces cerevisiae): 12.5 µM (≈ 13.4 µg/mL) | MIC [13]: > 100 µM | MIC (Bacillus subtilis JC443): ≥ 149 µM | MIC [14]: ≥ 50 µM | MIC [15]: 25 µM (≈ 26.9 µg/mL) | MIC (Listeria ivanovii): ≥ 50 µM | MIC [16]: 50 µM and 100 µM
Compound: CC[C@H](C)[C@H](NC(=O)[C@H](CCCN=C(N)N)NC(=O)[C@H](CO)NC(=O)[C@H](CC(C)C)NC(=O)[C@H](Cc1ccccc1)NC(=O)[C@H](Cc1ccccc1)NC(=O)[C@@H](N)Cc1ccccc1)C(=O)N[C@@H](Cc1ccccc1)C(N)=O [FFFLSRIF]
